Literature values, collected in patent publication EP0086705A1, “Aqueous solution of ursodeoxycholic acid for therapeutic uses, process for its preparation and its utilization for the treatment of cholelithiasis” (S.A. PANMEDICA Société dite:, priority 1982, dated 1983).

Conditions: 37"C

In the case of `C[C@H](CCC(=O)O)[C@H]1CC[C@H]2[C@@H]3[C@H](O)C[C@@H]4C[C@H](O)CC[C@]4(C)[C@H]3CC[C@]12C` [acide chénodésoxycholique], the “pH de précipitation de la solution” value is listed as 7,0.
